Measurements published in paper PMC10444862, “Using macromolecular electron densities to improve the enrichment of active compounds in virtual screening” (Communications Chemistry, 2023).

Each compound was assayed against SARS-COV-2 3CLpro (having a P132H mutation, 3CLpro^P132H) (Severe acute respiratory syndrome coronavirus 2, UniProt P0DTD1, P3395H).
Assay type: biochemical

| Structure (SMILES) | Inhibition Rate ([Cpd.]=40 uM) |
| --- | --- |
| O=C(Nc1ccccc1)N1CCCC(C(=O)N2CC(C(=O)N3CCCCC3)Oc3ccccc32)C1 (stereo not drawn) [D19, O=C(Nc1ccccc1)N1CCCC(C(=O)N2CC(C(=O)N3CCCCC3)Oc3ccccc32)C1] | < 0.5 |
| C[C@@]1(O)C[C@H](O)CN(C(=O)[C@@H](N)Cc2ccc(O)cc2)C[C@H]1n1cnc2c(N)nc(N)nc21 [D20, C[C@@]1(O)C[C@H](O)CN(C(=O)[C@@H](N)Cc2ccc(O)cc2)C[C@H]1n1cnc2c(N)nc(N)nc21] | < 0.5 |
| O=C(NC(c1ccccc1)c1ccc2[nH]cnc2c1)C1=NN(C2CCS(=O)(=O)C2)C(=O)CC1 (stereo not drawn) [D21, O=C(NC(c1ccccc1)c1ccc2[nH]cnc2c1)C1=NN(C2CCS(=O)(=O)C2)C(=O)CC1] | < 0.5 |
| CC(=O)N1CCc2c(sc3c2c(=O)n(-c2ccccc2)c(=O)n3CC(=O)c2ccc(F)cc2)C1 [D22, CC(=O)N1CCc2c(sc3c2c(=O)n(-c2ccccc2)c(=O)n3CC(=O)c2ccc(F)cc2)C1] | < 0.5 |
| COCCn1/c(=N/C(=O)c2c(F)cccc2F)sc2cc(S(N)(=O)=O)ccc21 [D23, COCCn1/c(=N/C(=O)c2c(F)cccc2F)sc2cc(S(N)(=O)=O)ccc21] | < 0.5 |
| O=C(c1cccc(O)c1)N1C[C@@H](c2cc(F)cc(F)c2)[C@@H]2[C@H]1C1CCN2CC1 [D24, O=C(c1cccc(O)c1)N1C[C@@H](c2cc(F)cc(F)c2)[C@@H]2[C@H]1C1CCN2CC1] | < 0.5 |
| Cn1c(NC(=O)c2cnn3c(C(F)(F)F)cc(-c4cccc5ccccc45)nc23)nc2ccccc21 [E1, Cn1c(NC(=O)c2cnn3c(C(F)(F)F)cc(-c4cccc5ccccc45)nc23)nc2ccccc21] | 0.82 |
| CCn1c(=O)n(CCC(=O)NC(Cc2ccccc2)c2nc3ccccc3[nH]2)c2ccccc21 (stereo not drawn) [E2, CCn1c(=O)n(CCC(=O)NC(Cc2ccccc2)c2nc3ccccc3[nH]2)c2ccccc21] | 0.67 |
| CC(=O)N1CCc2c(sc3c2c(=O)n(-c2ccc(F)cc2)c(=O)n3Cc2cc(C)ccc2C)C1 [E3, CC(=O)N1CCc2c(sc3c2c(=O)n(-c2ccc(F)cc2)c(=O)n3Cc2cc(C)ccc2C)C1] | 0.92 |
| O=C1/C(=C\NN(Cc2ccccc2)c2ccccc2)c2ccccc2C(=O)N1c1cccc(Cl)c1 [E4, O=C1C(=CNN(Cc2ccccc2)c2ccccc2)c2ccccc2C(=O)N1c1cccc(Cl)c1] | 0.65 |
| CC(=O)N1CCc2c(sc3c2c(=O)n(-c2ccccc2)c(=O)n3Cc2cc(C)ccc2C)C1 [E5, CC(=O)N1CCc2c(sc3c2c(=O)n(-c2ccccc2)c(=O)n3Cc2cc(C)ccc2C)C1] | 0.64 |
| O=C(c1cccnc1)N1CCc2c([nH]c3ccccc23)C1c1cccc(C(F)(F)F)c1 (stereo not drawn) [E6, O=C(c1cccnc1)N1CCc2c([nH]c3ccccc23)C1c1cccc(C(F)(F)F)c1] | 0.55 |
| CC(=O)N1C(C(=O)N(CCc2ccccc2)Cc2ccccc2)CSC1c1ccccc1O (stereo not drawn) [E7, CC(=O)N1C(C(=O)N(CCc2ccccc2)Cc2ccccc2)CSC1c1ccccc1O] | 0.63 |
| Cc1cccc(Cn2c(=O)c(C(=O)NCc3ccco3)nn(-c3ccccc3F)c2=O)c1 [E8, Cc1cccc(Cn2c(=O)c(C(=O)NCc3ccco3)nn(-c3ccccc3F)c2=O)c1] | 0.66 |
| CCc1ccccc1N(CC(=O)Nc1ccccc1C(=O)NC(C)CC)S(=O)(=O)c1ccccc1 (stereo not drawn) [E9, CCc1ccccc1N(CC(=O)Nc1ccccc1C(=O)NC(C)CC)S(=O)(=O)c1ccccc1] | 0.54 |
| COc1ccc(/N=C(/Nc2ccc(OC)cc2)c2cccc3ccccc23)cc1 [E10, COc1ccc(/N=C(/Nc2ccc(OC)cc2)c2cccc3ccccc23)cc1] | < 0.5 |
| CN(CCCN(Cc1cccn1Cc1ccc(Cl)cc1)C(=O)Nc1ccccc1)c1ccccc1 [E11, CN(CCCN(Cc1cccn1Cc1ccc(Cl)cc1)C(=O)Nc1ccccc1)c1ccccc1] | < 0.5 |
| CCOc1ccc(N(Cc2nnc3n2CCCCC3)C(=O)Nc2ccc(C)cc2)cc1 [E12, CCOc1ccc(N(Cc2nnc3n2CCCCC3)C(=O)Nc2ccc(C)cc2)cc1] | < 0.5 |
| CC(=O)N1CCc2c(sc3c2c(=O)n(Cc2ccccc2)c(=O)n3Cc2cccc(C)c2)C1 [E13, CC(=O)N1CCc2c(sc3c2c(=O)n(Cc2ccccc2)c(=O)n3Cc2cccc(C)c2)C1] | < 0.5 |
| COc1cccc(-n2c(=O)c3c(C)c(C(=O)N(C)C)sc3n(Cc3cccc(F)c3)c2=O)c1 [E14, COc1cccc(-n2c(=O)c3c(C)c(C(=O)N(C)C)sc3n(Cc3cccc(F)c3)c2=O)c1] | < 0.5 |
| CCN(CC)C(=O)c1sc2c(c1C)c(=O)n(-c1ccccc1)c(=O)n2Cc1cccc(Cl)c1 [E15, CCN(CC)C(=O)c1sc2c(c1C)c(=O)n(-c1ccccc1)c(=O)n2Cc1cccc(Cl)c1] | < 0.5 |
| CC(=O)N1CCc2c(sc3c2c(=O)n(-c2ccccc2C)c(=O)n3Cc2cc(C)ccc2C)C1 [E16, CC(=O)N1CCc2c(sc3c2c(=O)n(-c2ccccc2C)c(=O)n3Cc2cc(C)ccc2C)C1] | < 0.5 |
| NC(=O)C[C@H]1CN(C(=O)COc2ncccn2)C[C@H]1OC(=O)c1ccccc1 [E17, NC(=O)C[C@H]1CN(C(=O)COc2ncccn2)C[C@H]1OC(=O)c1ccccc1] | < 0.5 |
| CC(=O)c1ccc(C(=O)N2CCc3c([nH]c4ccccc34)C2c2ccccc2F)s1 (stereo not drawn) [E18, CC(=O)c1ccc(C(=O)N2CCc3c([nH]c4ccccc34)C2c2ccccc2F)s1] | < 0.5 |
| COc1cccc(CN(CCc2c[nH]c3ccccc23)C(=O)c2ccnn2C)c1 [E19, COc1cccc(CN(CCc2c[nH]c3ccccc23)C(=O)c2ccnn2C)c1] | < 0.5 |
| COCc1ccc(C(=O)N(Cc2ccccc2)Cc2nc3ccccc3c(=O)[nH]2)cc1 [E20, COCc1ccc(C(=O)N(Cc2ccccc2)Cc2nc3ccccc3c(=O)[nH]2)cc1] | < 0.5 |
| O=C1[C@@H]2Cc3c([nH]c4ccccc34)C(c3cccc([N+](=O)[O-])c3)N2C(=O)CN1CC(O)c1ccccc1 (stereo partly drawn) [E21, O=C1[C@@H]2Cc3c([nH]c4ccccc34)C(c3cccc([N+](=O)[O-])c3)N2C(=O)CN1CC(O)c1ccccc1] | < 0.5 |
| O=C(c1cc(=O)c2ccccc2o1)N1CCc2c([nH]c3ccccc23)C1c1ccccc1F (stereo not drawn) [E22, O=C(c1cc(=O)c2ccccc2o1)N1CCc2c([nH]c3ccccc23)C1c1ccccc1F] | < 0.5 |
| O=C(CSc1nc(-c2ccccc2F)nc2c1cnn2-c1ccccc1)NC1CC1 [E23, O=C(CSc1nc(-c2ccccc2F)nc2c1cnn2-c1ccccc1)NC1CC1] | < 0.5 |
| COc1ccc(N2C(=O)C3C(Cc4c[nH]c5ccccc45)NC4(C(=O)Nc5ccccc54)C3C2=O)cc1 (stereo not drawn) [E24, COc1ccc(N2C(=O)C3C(Cc4c[nH]c5ccccc45)NC4(C(=O)Nc5ccccc54)C3C2=O)cc1] | < 0.5 |
